Assay results published in the supplement of paper PMC8882468.

Assays:
Assay in all cases: CTG-3D luminescence at 96 h relative to day-0 seeding control (ratio to day 0); higher = more growth / less cytotoxicity; PDxO 3D drug screen (set 2), 96 h, CTG-3D normalised to day-0 seeding control.
HCI-015 = tested on: HCI-015 (organoid from a triple-negative breast cancer xenograft)
HCI-025 = tested on: HCI-025 (organoid from a breast cancer xenograft)
HCI-008 = tested on: HCI-008 (organoid from a HER2-enriched breast cancer xenograft)
HCI-016 = tested on: HCI-016 (organoid from a triple-negative breast cancer xenograft)
HCI-010 = tested on: HCI-010 (organoid from a breast cancer xenograft)

CCOc1ccn(-c2ccc(F)cc2)c(=O)c1C(=O)Nc1ccc(Oc2ccnc(N)c2Cl)c(F)c1 [ASLAN002]
CTG-3D luminescence at 96 h
Conditions	12.5 pM	0.00025 µM	0.005 µM	0.1 µM	1 µM	10 µM	100 µM	625 fM
HCI-008, days in culture: 325	1.03	2.2	2.46	3.53	3.54	2.48	1.08	2.16
HCI-008, days in culture: 340	0.543	2.27	1.52	1.76	1.83	–	0.867	0.758
HCI-008, days in culture: 354	1.38	1.4	2.81	1.45	1.54	0.917	0.857	1.08
HCI-008, days in culture: 382	1.45	1.54	1.29	1.09	0.767	1.78	0.377	1.52
HCI-010, days in culture: 79	1.78	1.68	1.94	2.05	1.8	1.55	0.742	1.97
HCI-010, days in culture: 86	2.24	2.35	2.82	2.77	2.48	2.23	0.77	2.51
HCI-010, days in culture: 102	1.1	1.26	1.21	1.48	1.41	1.14	0.252	0.941
HCI-010, days in culture: 164	1.62	1.61	1.72	1.74	1.66	1.3	0.248	1.36
HCI-015, days in culture: 333	1.68	1.64	0.866	1.08	0.841	0.711	0.501	1.57
HCI-015, days in culture: 355	1.87	3.41	1.5	1.76	1.71	2.18	0.883	2.05
HCI-015, days in culture: 369	2.27	1.62	2.12	1.97	2.23	1.38	1.18	1.94
HCI-016, days in culture: 305	1.62	3.6	3.65	4.35	2.71	1.97	2.68	3.43
HCI-016, days in culture: 327	0.8	1.78	1.32	1.46	1.87	1.58	1.05	1.72
HCI-016, days in culture: 341	1.97	1.78	2.09	2.6	1.97	2	0.676	2.26
HCI-016, days in culture: 397	1.73	2.37	1.99	2.59	2.39	2.98	0.779	2.52
HCI-025, days in culture: 175	1.55	1.97	1.91	2.81	2.73	2.56	1.7	1.46
HCI-025, days in culture: 189	2.49	2.61	1.96	2.27	2.6	1.72	0.561	2.72
HCI-025, days in culture: 212	1.41	1.8	3.86	1.18	0.524	1.75	0.694	1.16
HCI-025, days in culture: 224	2.08	0.982	2.02	1.32	1.95	1.87	1.18	1.86

C[C@@H](Nc1cc(F)cc(F)c1)c1cc(C(=O)N(C)C)cc2c(=O)cc(N3CCOCC3)oc12 [AZD-8186]
CTG-3D luminescence at 96 h
Conditions	12.5 pM	0.00025 µM	0.005 µM	0.1 µM	1 µM	10 µM	100 µM	625 fM
HCI-008, days in culture: 325	1.16	2.3	1.7	3.47	3.65	1.03	0.315	1.35
HCI-008, days in culture: 340	1.72	2.42	1.8	1.21	1.62	–	0.345	1.48
HCI-008, days in culture: 354	1.26	1.28	1.82	1.24	1.26	0.634	0.353	1.32
HCI-008, days in culture: 382	1.77	1.86	1.54	1.44	1.16	0.995	0.193	1.86
HCI-010, days in culture: 79	1.88	1.85	1.94	1.98	1.58	1.1	0.138	2.14
HCI-010, days in culture: 86	2.26	2.36	2.34	2.1	1.99	1.67	0.321	2.16
HCI-010, days in culture: 102	1.18	0.973	1.18	1.19	1.19	0.856	0.0314	1.26
HCI-010, days in culture: 164	1.6	1.49	1.64	1.37	1.4	1.02	0.0763	1.52
HCI-015, days in culture: 333	2.09	1.46	1.76	1.33	1.37	0.684	0.452	1.77
HCI-015, days in culture: 355	1.76	3.09	1.3	1.46	1.12	2.35	0.668	1.57
HCI-015, days in culture: 369	2.35	1.7	1.96	1.84	2.18	1.24	1.01	1.96
HCI-016, days in culture: 305	3.52	4.53	2.53	4.16	1.53	1.97	1.51	4.97
HCI-016, days in culture: 327	1.3	1.35	1.53	2.67	0.902	1.31	0.672	1.61
HCI-016, days in culture: 341	2.01	1.59	2.07	1.7	1.81	2.04	0.88	2.55
HCI-016, days in culture: 397	2.34	2.9	1.49	1.76	2.14	1.87	0.71	2.46
HCI-025, days in culture: 175	1.63	2.47	1.8	1.98	2.4	3.48	1.34	1.51
HCI-025, days in culture: 189	2.22	1.46	1.89	1.5	1.81	1.88	0.528	3.16
HCI-025, days in culture: 212	1.07	3.57	2.79	1.25	0.857	1.27	1.2	1.56
HCI-025, days in culture: 224	1.99	2.38	1.66	2	2.68	1.8	1.09	2.03

Cc1c(CN2CCN(C(=O)[C@H](C)O)CC2)sc2c(N3CCOCC3)nc(-c3cnc(N)nc3)nc12 [apitolisib]
CTG-3D luminescence at 96 h
Conditions	12.5 pM	0.00025 µM	0.005 µM	0.1 µM	1 µM	10 µM	100 µM	625 fM
HCI-008, days in culture: 325	1.41	2	1.65	1.78	0.742	0.507	0.435	1.77
HCI-008, days in culture: 340	1.4	1.81	1.5	0.702	0.415	–	0.351	1.52
HCI-008, days in culture: 354	1.55	1.16	2.04	1.34	0.285	0.344	0.491	1.32
HCI-008, days in culture: 382	1.87	1.72	0.949	0.687	0.13	0.258	0.331	1.49
HCI-010, days in culture: 79	1.94	1.83	1.96	1.68	0.503	0.107	0.0163	2.13
HCI-010, days in culture: 86	2.03	2.34	2.49	1.94	0.554	0.242	0.088	2.27
HCI-010, days in culture: 102	1.17	1.35	1.21	0.954	0.286	0.0291	0.0044	0.944
HCI-010, days in culture: 164	1.71	1.39	1.57	1.27	0.641	0.265	0.0363	1.33
HCI-015, days in culture: 333	2.19	1.99	1.89	1.33	0.434	0.445	0.394	1.94
HCI-015, days in culture: 355	2.9	4.1	1.01	2.04	0.803	0.711	0.182	1.38
HCI-015, days in culture: 369	2.06	1.76	2.05	1.61	0.917	0.622	0.691	1.69
HCI-016, days in culture: 305	2.28	2.68	3.05	3.53	0.981	0.764	0.885	4.57
HCI-016, days in culture: 327	1.06	1.19	1.2	1.18	0.573	0.82	0.546	1.62
HCI-016, days in culture: 341	2.23	1.71	1.7	1.65	0.831	0.768	0.618	2.56
HCI-016, days in culture: 397	1.26	1.89	1.41	1.48	0.778	0.916	0.378	1.87
HCI-025, days in culture: 175	1.49	1.72	1.53	1.89	0.73	0.467	0.419	1.16
HCI-025, days in culture: 189	1.77	1.49	1.66	1.41	0.518	0.179	0.121	2.67
HCI-025, days in culture: 212	2.2	3.51	2.34	0.777	0.534	0.218	0.139	0.788
HCI-025, days in culture: 224	2.45	2.02	2.09	1.35	0.679	0.351	0.267	2

Nc1cc(C(F)(F)F)c(-c2cc(N3CCOCC3)nc(N3CCOCC3)n2)cn1 [buparlisib]
CTG-3D luminescence at 96 h
Conditions	12.5 pM	0.00025 µM	0.005 µM	0.1 µM	1 µM	10 µM	100 µM	625 fM
HCI-008, days in culture: 325	0.757	2.89	2.4	2.51	1.17	0.647	0.313	1.94
HCI-008, days in culture: 340	0.632	2.38	1.94	1.55	1.56	–	0.305	1.04
HCI-008, days in culture: 354	0.796	1.19	2.59	1.46	0.578	0.294	0.327	1.16
HCI-008, days in culture: 382	1.52	1.82	1.45	1.71	0.652	0.363	0.104	1.9
HCI-010, days in culture: 79	1.69	1.83	1.84	1.83	1.02	0.456	0.0891	2
HCI-010, days in culture: 86	2	2.29	2.49	2.33	1.36	0.525	0.146	2.19
HCI-010, days in culture: 102	1.08	1.24	1.36	1.38	0.738	0.309	0.0336	0.982
HCI-010, days in culture: 164	1.62	1.52	1.57	1.65	1.04	0.556	0.11	1.37
HCI-015, days in culture: 333	2.29	1.36	1.57	1.43	0.645	0.204	0.269	1.16
HCI-015, days in culture: 355	1.31	3.75	1.42	1.76	0.946	0.466	0.46	2.06
HCI-015, days in culture: 369	1.92	1.66	2.47	1.92	0.94	0.378	0.599	1.66
HCI-016, days in culture: 305	2.89	2.88	2.23	4.87	1.89	0.444	0.606	5.12
HCI-016, days in culture: 327	1.19	1.21	1.32	2.02	1.16	0.497	0.431	1.23
HCI-016, days in culture: 341	2.17	1.78	2.04	2.44	1.48	0.65	0.484	2.59
HCI-016, days in culture: 397	1.77	2.39	1.33	2.74	1.41	0.71	0.511	2.25
HCI-025, days in culture: 175	1.38	1.85	1.95	1.88	1.75	0.433	0.118	1.71
HCI-025, days in culture: 189	2.47	2.03	1.96	1.69	1.36	0.246	0.0627	2.83
HCI-025, days in culture: 212	3.39	3.81	2.06	1.13	1.13	0.331	0.0312	1.54
HCI-025, days in culture: 224	2.03	2.32	1.5	1.44	1.75	0.339	0.136	1.69
